Results reported in PMC4131897 (Biochemistry, 2014).

Target: T1, BjPutA (proline utilization A) (Bradyrhizobium diazoefficiens, UniProt Q89E26, D779A)
T1 sequence (Q89E26 1-999 D779A): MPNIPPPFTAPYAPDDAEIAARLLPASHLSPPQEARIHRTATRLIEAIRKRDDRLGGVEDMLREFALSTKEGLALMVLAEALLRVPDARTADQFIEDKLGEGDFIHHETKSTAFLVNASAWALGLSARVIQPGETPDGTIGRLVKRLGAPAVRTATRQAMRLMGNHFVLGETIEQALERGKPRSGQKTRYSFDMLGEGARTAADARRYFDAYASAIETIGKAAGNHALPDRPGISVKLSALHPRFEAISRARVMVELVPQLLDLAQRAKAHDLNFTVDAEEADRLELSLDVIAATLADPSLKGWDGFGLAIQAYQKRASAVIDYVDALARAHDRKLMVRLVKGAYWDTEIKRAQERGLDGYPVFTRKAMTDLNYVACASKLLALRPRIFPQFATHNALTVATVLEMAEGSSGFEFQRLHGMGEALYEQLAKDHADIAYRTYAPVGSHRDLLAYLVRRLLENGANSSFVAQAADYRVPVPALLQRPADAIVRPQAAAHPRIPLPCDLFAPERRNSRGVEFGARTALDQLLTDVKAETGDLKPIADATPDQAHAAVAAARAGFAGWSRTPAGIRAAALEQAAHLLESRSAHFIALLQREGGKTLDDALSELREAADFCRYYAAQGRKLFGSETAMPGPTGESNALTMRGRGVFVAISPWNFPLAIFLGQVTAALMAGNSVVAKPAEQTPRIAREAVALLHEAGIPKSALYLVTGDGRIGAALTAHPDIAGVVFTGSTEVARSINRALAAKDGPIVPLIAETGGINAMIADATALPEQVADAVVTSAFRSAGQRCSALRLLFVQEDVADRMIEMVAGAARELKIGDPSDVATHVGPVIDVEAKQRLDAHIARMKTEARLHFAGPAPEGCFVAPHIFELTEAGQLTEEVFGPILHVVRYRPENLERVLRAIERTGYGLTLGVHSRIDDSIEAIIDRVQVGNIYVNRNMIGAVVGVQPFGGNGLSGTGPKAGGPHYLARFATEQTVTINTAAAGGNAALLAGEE
Assay: intrinsic tryptophan fluorescence quenching
Format: binding

Compound: NC(=O)c1ccc[n+]([C@@H]2O[C@H](COP(=O)(O)OP(=O)(O)OC[C@H]3O[C@@H](n4cnc5c(N)ncnc54)[C@H](O)[C@@H]3O)[C@@H](O)[C@H]2O)c1 [NAD^+]
- Kd: 0.64 ± 0.05 µM
